Laboratory results as given in patent US5665739A, “Substituted benzoylguanidines, process and their preparation, their use as pharmaceutical or diagnostic, and pharmaceutical containing them” (priority 1992, dated 1997).

Assays:
Na^+ /H^+ exchanger = biological target: T1, Na^+ /H^+ exchanger (Oryctolagus cuniculus, UniProt P23791); test: Inhibition of the Na+/H+ exchanger of rabbit erythrocytes; format: cell-based; details: amiloride-sensitive Na+ influx, pH 7.4, 37° C.
T1 construct: endogenous in cells; host or cells: rabbit erythrocytes (blood of cholesterol-fed White New Zealand rabbits)
Source text: Inhibition of the Na^+ /H^+ exchanger of rabbit erythrocytes
White New Zealand rabbits (Ivanovas) were given a standard diet containing 2% of cholesterol for six weeks so as to activate the Na^+ /H^+ exchange in order to be able to determine the Na^+ influx into the erythrocytes via Na^+ /H^+ exchange by means of flame photometry. The blood was sampled from the auricular artery and made incoagulable by addition of 25 IE of potassium heparin. Part of each sample was used for a repeated hematocrit measurement by centrifuging. 100 μl aliquots were used for measuring the initial Na^+ content of the erythrocytes.
To determine the amiloride-sensitive sodium influx, 100 μl of each blood sample were incubated in in each case 5 ml of a hyperosmolaric salt/sucrose medium (mmol/l: 140 NaCl, 3 KCl, 150 sucrose, 0.1 ouabain, 20 tris-hydroxymethylaminomethane) at pH 7.4 and 37° C. […] The intracellular sodium content was determined by flame photometry.
The Na^+ net influx was calculated from the difference between the initial sodium values and the sodium content of the erythrocytes after incubation. The sodium influx which can be inhibited by amiloride was determined from the difference of the sodium content of the erythrocytes after incubation with and without amiloride 3×10^-4 mol/l. […]

[1] = tested on: artificially induced ventricular fibrillation; details: rats' hearts; Eur. Heart J. 9 (suppl. 1): 167 (1988); cited from earlier work
[2] = in vivo; cited from earlier work

T1 sequence (P23791 whole entry): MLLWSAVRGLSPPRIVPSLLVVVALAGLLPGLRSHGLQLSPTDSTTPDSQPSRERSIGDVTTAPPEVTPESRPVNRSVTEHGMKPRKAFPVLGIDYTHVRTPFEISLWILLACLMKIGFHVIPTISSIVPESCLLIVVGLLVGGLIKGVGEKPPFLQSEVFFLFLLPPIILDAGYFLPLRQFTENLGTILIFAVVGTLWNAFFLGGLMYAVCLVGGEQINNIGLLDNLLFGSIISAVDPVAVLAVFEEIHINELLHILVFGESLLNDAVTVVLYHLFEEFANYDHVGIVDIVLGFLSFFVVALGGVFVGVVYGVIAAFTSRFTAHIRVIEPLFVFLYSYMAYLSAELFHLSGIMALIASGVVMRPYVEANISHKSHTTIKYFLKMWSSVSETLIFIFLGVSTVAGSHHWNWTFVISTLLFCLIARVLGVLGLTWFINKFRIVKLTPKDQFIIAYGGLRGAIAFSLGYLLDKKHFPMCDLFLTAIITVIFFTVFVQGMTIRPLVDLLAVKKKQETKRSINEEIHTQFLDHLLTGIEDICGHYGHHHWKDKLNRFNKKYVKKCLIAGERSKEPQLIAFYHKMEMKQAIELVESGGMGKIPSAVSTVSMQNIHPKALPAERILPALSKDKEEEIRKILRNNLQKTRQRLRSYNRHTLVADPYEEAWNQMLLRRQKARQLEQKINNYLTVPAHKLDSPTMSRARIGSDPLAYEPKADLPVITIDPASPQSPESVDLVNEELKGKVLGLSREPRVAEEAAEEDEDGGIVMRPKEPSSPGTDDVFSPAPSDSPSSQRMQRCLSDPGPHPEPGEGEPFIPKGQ

| IC50 (Na^+ /H^+ exchanger) | Compound | suppression of artificially induced ventricular fibrillation [1] | hypotensive and saluretic side effects [2] |
| --- | --- | --- | --- |
| 30 nM | NC(N)=NC(=O)c1ccc(Oc2cccnc2)c(C(F)(F)F)c1 [Example 16, 4-(3-Pyridyloxy)-3-trifluoromethylbenzoylguanidine] | – | – |
| – | CCN(c1nc(N)c(C(=O)N=C(N)N)nc1Cl)C(C)C [ethylisopropylamiloride, Ethylisopropylamiloride] | even more potent than amiloride itself | – |
| – | NC(N)=NC(=O)c1nc(Cl)c(N)nc1N [amiloride, Amiloride] | suppressed completely | accompanied by a hypotensive and saluretic activity |
| 40 nM | NC(N)=NC(=O)c1ccc(Oc2ccc3ncccc3c2)c(C(F)(F)F)c1 [Example 17, 4-(6-Quinolinoxy)-3-trifluoromethylbenzoylguanidine] | – | – |
